# Data from the kinase profiling compilation of Christmann-Franck et al. (2016).
# How the values were obtained:
# Assay in all cases: KINOMEscan competition binding
# [1] = biological target: SLK (human) (UniProt Q9H2G2); settings: compound 10.0 µM
# [2] = biological target: LTK (human) (UniProt P29376); settings: compound 10.0 µM
# [3] = biological target: HIPK1 (human) (UniProt Q86Z02); settings: compound 10.0 µM
# [4] = biological target: CDK9 (human) (UniProt P50750); settings: compound 10.0 µM
# [5] = biological target: RAF1 (human) (UniProt P04049); settings: compound 10.0 µM
# [6] = biological target: TTK (human) (UniProt P33981); settings: compound 10.0 µM
# [7] = test system: ABL1 (human), P00519 [M351T]; settings: compound 10.0 µM
# [8] = biological target: CDK18 (human) (UniProt Q07002); settings: compound 10.0 µM
# [9] = biological target: FES (human) (UniProt P07332); settings: for kinase still bound, per cent of control: compound 10.0 µM
# [10] = biological target: SRC (human) (UniProt P12931); settings: compound 10.0 µM
# [11] = biological target: TNNI3K (human) (UniProt Q59H18); settings: compound 10.0 µM
# [12] = biological target: CDK17 (human) (UniProt Q00537); settings: compound 10.0 µM
# [13] = biological target: MAP4K1 (human) (UniProt Q92918); settings: compound 10.0 µM
# [14] = test system: RET (human), P07949 [V804L]; settings: compound 10.0 µM
# [15] = biological target: MAP4K2 (human) (UniProt Q12851); settings: compound 10.0 µM
# [16] = biological target: STK38L (human) (UniProt Q9Y2H1); settings: compound 10.0 µM
# [17] = biological target: KDR (human) (UniProt P35968); settings: compound 10.0 µM
# [18] = biological target: INSRR (human) (UniProt P14616); settings: compound 10.0 µM
# [19] = biological target: MAPK11 (human) (UniProt Q15759); settings: compound 10.0 µM
# [20] = biological target: CDK19 (human) (UniProt Q9BWU1); settings: compound 10.0 µM
# [21] = biological target: RPS6KA1 KD2 (human) (UniProt Q15418); settings: compound 10.0 µM
# [22] = biological target: CDC42BPA (human) (UniProt Q5VT25); settings: compound 10.0 µM
# [23] = biological target: NEK1 (human) (UniProt Q96PY6); settings: compound 10.0 µM
# [24] = biological target: LIMK1 (human) (UniProt P53667); settings: compound 10.0 µM
# [25] = biological target: MAP2K6 (human) (UniProt P52564); settings: compound 10.0 µM
# [26] = biological target: MAPK6 (human) (UniProt Q16659); settings: compound 10.0 µM
# [27] = biological target: PAK1 (human) (UniProt Q13153); settings: compound 10.0 µM
# [28] = biological target: MAP3K11 (human) (UniProt Q16584); settings: compound 10.0 µM
# [29] = biological target: EPHA7 (human) (UniProt Q15375); settings: compound 10.0 µM
# [30] = biological target: CLK3 (human) (UniProt P49761); settings: compound 10.0 µM
# [31] = biological target: PAK6 (human) (UniProt Q9NQU5); settings: compound 10.0 µM
# [32] = biological target: AKT3 (human) (UniProt Q9Y243); settings: compound 10.0 µM
# [33] = biological target: MST1R (human) (UniProt Q04912); settings: compound 10.0 µM
# [34] = biological target: EPHB1 (human) (UniProt P54762); settings: compound 10.0 µM
# [35] = biological target: DAPK1 (human) (UniProt P53355); settings: compound 10.0 µM
# [36] = biological target: PAK4 (human) (UniProt O96013); settings: compound 10.0 µM
# [37] = biological target: BTK (human) (UniProt Q06187); settings: compound 10.0 µM
# [38] = biological target: PRKD1 (human) (UniProt Q15139); settings: compound 10.0 µM
# [39] = biological target: PLK1 (human) (UniProt P53350); settings: compound 10.0 µM
# [40] = biological target: BMPR2 (human) (UniProt Q13873); settings: compound 10.0 µM
# [41] = biological target: PIM3 (human) (UniProt Q86V86); settings: compound 10.0 µM
# [42] = biological target: PHKG1 (human) (UniProt Q16816); settings: compound 10.0 µM
# [43] = biological target: MAP4K5 (human) (UniProt Q9Y4K4); settings: compound 10.0 µM
# Sequence of CDK17 (human) (Q00537 whole entry, looked up): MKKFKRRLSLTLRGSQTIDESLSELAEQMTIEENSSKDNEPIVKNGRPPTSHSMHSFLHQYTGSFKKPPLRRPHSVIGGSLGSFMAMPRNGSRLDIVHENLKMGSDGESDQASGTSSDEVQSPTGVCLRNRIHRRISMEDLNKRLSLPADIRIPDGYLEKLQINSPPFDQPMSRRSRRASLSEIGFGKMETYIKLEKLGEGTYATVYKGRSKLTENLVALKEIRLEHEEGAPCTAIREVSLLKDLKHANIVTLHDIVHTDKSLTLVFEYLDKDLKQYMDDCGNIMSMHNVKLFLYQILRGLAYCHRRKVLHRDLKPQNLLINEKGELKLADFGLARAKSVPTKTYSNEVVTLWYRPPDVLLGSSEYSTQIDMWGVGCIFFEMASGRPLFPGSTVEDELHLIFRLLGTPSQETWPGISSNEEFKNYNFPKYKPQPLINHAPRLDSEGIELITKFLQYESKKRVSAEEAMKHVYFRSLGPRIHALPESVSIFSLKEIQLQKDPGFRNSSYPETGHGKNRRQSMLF
# Sequence of KDR (human) (P35968 whole entry, looked up): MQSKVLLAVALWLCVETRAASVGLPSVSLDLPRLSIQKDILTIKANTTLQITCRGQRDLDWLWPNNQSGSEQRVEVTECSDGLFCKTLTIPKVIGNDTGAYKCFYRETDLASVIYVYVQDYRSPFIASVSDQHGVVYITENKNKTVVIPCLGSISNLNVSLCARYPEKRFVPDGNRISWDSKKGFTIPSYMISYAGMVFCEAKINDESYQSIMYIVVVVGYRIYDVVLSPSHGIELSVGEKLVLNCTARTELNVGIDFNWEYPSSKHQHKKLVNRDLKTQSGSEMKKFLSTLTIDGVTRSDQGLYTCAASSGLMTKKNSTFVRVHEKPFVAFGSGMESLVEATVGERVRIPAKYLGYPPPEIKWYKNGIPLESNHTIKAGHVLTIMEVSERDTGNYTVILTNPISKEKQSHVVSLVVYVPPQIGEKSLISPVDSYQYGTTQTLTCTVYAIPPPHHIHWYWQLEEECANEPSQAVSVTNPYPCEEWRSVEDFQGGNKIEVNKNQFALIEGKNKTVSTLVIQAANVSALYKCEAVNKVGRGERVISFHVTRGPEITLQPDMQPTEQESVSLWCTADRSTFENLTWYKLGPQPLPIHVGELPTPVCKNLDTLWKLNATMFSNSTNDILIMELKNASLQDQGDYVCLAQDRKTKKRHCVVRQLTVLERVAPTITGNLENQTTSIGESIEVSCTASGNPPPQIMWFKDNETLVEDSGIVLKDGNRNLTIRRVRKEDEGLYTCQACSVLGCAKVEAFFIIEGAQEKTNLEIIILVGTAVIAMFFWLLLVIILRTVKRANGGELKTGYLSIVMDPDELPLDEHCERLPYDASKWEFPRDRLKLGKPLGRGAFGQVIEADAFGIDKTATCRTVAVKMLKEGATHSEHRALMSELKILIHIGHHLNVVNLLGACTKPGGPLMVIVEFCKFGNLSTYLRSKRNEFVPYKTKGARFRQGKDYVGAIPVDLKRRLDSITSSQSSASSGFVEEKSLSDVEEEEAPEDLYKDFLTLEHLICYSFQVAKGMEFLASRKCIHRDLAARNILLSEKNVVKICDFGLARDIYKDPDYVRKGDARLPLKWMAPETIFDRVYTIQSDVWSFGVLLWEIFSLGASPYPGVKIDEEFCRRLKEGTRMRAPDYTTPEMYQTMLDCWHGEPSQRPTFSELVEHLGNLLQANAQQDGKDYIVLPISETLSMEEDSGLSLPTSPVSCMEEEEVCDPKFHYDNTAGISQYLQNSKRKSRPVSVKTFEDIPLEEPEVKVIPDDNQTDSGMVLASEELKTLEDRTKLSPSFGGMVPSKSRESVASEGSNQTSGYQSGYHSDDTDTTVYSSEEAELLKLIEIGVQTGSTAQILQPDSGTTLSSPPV
# Sequence of CDK19 (human) (Q9BWU1 whole entry, looked up): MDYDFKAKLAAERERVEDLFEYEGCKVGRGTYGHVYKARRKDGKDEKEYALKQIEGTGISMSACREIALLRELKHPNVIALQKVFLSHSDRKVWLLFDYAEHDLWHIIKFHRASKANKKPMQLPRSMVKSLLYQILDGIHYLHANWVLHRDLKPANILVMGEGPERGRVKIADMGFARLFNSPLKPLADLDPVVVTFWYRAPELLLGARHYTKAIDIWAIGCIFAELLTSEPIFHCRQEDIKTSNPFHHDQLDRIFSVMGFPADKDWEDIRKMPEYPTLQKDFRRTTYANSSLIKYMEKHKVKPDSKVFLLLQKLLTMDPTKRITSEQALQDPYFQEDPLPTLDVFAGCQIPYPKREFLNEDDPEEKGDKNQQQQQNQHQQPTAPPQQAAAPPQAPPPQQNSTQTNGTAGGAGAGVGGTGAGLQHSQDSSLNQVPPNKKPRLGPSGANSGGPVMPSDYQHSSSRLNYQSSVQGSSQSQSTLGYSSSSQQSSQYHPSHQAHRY
# Sequence of TNNI3K (human) (Q59H18 whole entry, looked up): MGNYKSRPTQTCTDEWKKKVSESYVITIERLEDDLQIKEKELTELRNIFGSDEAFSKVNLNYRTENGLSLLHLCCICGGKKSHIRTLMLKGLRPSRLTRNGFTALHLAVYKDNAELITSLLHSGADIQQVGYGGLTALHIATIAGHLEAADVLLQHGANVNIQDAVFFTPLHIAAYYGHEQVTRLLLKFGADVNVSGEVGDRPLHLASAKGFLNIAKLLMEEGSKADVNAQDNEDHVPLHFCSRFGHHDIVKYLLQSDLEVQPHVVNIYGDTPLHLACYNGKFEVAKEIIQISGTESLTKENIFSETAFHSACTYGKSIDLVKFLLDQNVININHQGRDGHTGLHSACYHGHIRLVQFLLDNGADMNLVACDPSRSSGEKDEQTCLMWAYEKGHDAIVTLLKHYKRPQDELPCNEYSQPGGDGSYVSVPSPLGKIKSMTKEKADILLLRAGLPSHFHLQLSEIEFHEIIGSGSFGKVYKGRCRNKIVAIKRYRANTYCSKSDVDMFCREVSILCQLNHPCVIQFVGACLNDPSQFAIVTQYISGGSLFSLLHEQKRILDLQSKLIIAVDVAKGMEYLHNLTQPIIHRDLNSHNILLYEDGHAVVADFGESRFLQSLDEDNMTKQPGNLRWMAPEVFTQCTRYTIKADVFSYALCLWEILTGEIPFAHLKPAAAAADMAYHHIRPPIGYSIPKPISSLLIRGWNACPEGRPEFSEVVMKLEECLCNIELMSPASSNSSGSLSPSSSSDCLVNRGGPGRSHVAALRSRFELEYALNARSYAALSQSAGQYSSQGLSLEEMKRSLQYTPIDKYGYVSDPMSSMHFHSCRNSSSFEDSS
# Sequence of INSRR (human) (P14616 whole entry, looked up): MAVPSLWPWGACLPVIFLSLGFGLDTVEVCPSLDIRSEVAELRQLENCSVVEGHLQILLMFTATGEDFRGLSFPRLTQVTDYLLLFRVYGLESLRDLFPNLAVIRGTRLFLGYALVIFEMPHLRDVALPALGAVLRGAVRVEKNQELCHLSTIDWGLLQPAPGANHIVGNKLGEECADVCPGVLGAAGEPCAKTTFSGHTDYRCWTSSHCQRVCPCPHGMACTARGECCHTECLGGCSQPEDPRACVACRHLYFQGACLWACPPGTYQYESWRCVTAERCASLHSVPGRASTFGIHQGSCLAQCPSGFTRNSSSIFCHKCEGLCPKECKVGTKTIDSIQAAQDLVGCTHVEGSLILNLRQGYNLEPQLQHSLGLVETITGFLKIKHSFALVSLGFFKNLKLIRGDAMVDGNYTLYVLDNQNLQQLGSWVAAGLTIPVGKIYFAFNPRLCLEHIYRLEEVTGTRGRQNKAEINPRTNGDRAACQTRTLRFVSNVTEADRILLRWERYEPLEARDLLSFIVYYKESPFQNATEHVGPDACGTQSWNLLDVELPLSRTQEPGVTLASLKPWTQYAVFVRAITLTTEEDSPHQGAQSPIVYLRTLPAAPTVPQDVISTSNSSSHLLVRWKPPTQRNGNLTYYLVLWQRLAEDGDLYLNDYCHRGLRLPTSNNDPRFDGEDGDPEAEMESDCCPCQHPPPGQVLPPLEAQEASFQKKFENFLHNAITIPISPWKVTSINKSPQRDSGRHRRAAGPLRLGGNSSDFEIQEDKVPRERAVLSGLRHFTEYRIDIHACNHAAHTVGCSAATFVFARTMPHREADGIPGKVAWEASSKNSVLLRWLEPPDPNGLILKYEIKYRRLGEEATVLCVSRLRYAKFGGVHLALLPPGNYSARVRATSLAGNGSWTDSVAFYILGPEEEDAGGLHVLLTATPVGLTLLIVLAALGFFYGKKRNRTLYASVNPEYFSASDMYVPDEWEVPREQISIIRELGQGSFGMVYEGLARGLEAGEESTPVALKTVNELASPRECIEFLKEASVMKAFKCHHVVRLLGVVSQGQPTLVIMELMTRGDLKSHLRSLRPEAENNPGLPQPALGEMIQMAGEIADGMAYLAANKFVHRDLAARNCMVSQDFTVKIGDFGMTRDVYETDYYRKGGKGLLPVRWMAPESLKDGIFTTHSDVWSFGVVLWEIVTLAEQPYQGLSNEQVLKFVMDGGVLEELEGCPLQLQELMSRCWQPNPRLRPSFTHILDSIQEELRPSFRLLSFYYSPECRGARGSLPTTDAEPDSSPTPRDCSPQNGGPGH
# Sequence of STK38L (human) (Q9Y2H1 whole entry, looked up): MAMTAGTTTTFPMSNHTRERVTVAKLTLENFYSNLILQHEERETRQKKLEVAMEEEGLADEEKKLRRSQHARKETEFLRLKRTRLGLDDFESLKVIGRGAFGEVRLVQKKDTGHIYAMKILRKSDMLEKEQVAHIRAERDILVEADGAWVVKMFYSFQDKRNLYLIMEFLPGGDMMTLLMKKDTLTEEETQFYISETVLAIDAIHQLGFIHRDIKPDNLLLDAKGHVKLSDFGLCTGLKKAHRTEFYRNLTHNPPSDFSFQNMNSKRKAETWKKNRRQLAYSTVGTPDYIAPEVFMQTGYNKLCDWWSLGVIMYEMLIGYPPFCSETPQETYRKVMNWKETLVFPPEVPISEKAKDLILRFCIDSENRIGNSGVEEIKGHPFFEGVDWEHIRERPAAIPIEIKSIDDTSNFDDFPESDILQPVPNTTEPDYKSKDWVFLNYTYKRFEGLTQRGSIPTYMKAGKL
smiles,measurement,setting,value
CCN1CCN(Cc2ccc(NC(=O)c3ccc(C)c(Oc4ccnc5[nH]ccc45)c3)cc2C(F)(F)F)CC1,"kinase still bound, per cent of control",[1],2%
same,"kinase still bound, per cent of control",[2],1.2%
same,"kinase still bound, per cent of control",[3],6.2%
same,"kinase still bound, per cent of control",[4],5.8%
same,"kinase still bound, per cent of control",[5],7%
same,"kinase still bound, per cent of control",[6],24%
same,"kinase still bound, per cent of control",[7],0.35%
same,"kinase still bound, per cent of control",[8],1.8%
same,"kinase still bound, per cent of control",[9],2.2%
same,"kinase still bound, per cent of control",[10],0.2%
same,"kinase still bound, per cent of control",[11],4.8%
same,"kinase still bound, per cent of control",[12],0.1%
same,"kinase still bound, per cent of control",[13],1.6%
same,"kinase still bound, per cent of control",[14],0.8%
same,"kinase still bound, per cent of control",[15],0.3%
same,"kinase still bound, per cent of control",[16],6.8%
same,"kinase still bound, per cent of control",[17],1.5%
same,"kinase still bound, per cent of control",[18],23%
same,"kinase still bound, per cent of control",[19],0%
same,"kinase still bound, per cent of control",[20],0.1%
COc1cc(N2CCC(N3CCN(C)CC3)CC2)ccc1Nc1ncc(Cl)c(Nc2ccccc2S(=O)(=O)C(C)C)n1,"kinase still bound, per cent of control",[1],0.1%
same,"kinase still bound, per cent of control",[21],10%
same,"kinase still bound, per cent of control",[22],40%
same,"kinase still bound, per cent of control",[23],40%
same,"kinase still bound, per cent of control",[2],0%
same,"kinase still bound, per cent of control",[24],2.2%
same,"kinase still bound, per cent of control",[3],40%
same,"kinase still bound, per cent of control",[4],40%
same,"kinase still bound, per cent of control",[25],40%
same,"kinase still bound, per cent of control",[5],40%
same,"kinase still bound, per cent of control",[6],0%
same,"kinase still bound, per cent of control",[7],5%
same,"kinase still bound, per cent of control",[26],40%
same,"kinase still bound, per cent of control",[27],4.8%
same,"kinase still bound, per cent of control",[8],40%
same,"kinase still bound, per cent of control",[28],20%
same,"kinase still bound, per cent of control",[10],0.2%
same,"kinase still bound, per cent of control",[11],15%
same,"kinase still bound, per cent of control",[29],0.4%
same,"kinase still bound, per cent of control",[30],3%
same,"kinase still bound, per cent of control",[31],13%
same,"kinase still bound, per cent of control",[32],40%
same,"kinase still bound, per cent of control",[33],3%
same,"kinase still bound, per cent of control",[34],0.1%
same,"kinase still bound, per cent of control",[35],6.4%
same,"kinase still bound, per cent of control",[36],9.6%
same,"kinase still bound, per cent of control",[12],9.9%
same,"kinase still bound, per cent of control",[37],0%
same,"kinase still bound, per cent of control",[38],1%
same,"kinase still bound, per cent of control",[39],0.1%
same,"kinase still bound, per cent of control",[15],9.4%
same,"kinase still bound, per cent of control",[16],7.3%
same,"kinase still bound, per cent of control",[40],40%
same,"kinase still bound, per cent of control",[17],2.2%
same,"kinase still bound, per cent of control",[41],40%
same,"kinase still bound, per cent of control",[18],0.35%
same,"kinase still bound, per cent of control",[42],0.1%
same,"kinase still bound, per cent of control",[43],0.3%
same,"kinase still bound, per cent of control",[19],40%
same,"kinase still bound, per cent of control",[20],40%
CCOc1cc(N2CCC(N3CCCCC3)CC2)ccc1Nc1nc(Nc2ccccc2S(=O)(=O)C(C)C)c2cn[nH]c2n1,"kinase still bound, per cent of control",[1],14%
same,"kinase still bound, per cent of control",[21],14%
same,"kinase still bound, per cent of control",[22],100%
same,"kinase still bound, per cent of control",[23],100%
same,"kinase still bound, per cent of control",[2],1.7%
same,"kinase still bound, per cent of control",[24],100%
same,"kinase still bound, per cent of control",[3],82%
same,"kinase still bound, per cent of control",[4],100%
same,"kinase still bound, per cent of control",[25],100%
same,"kinase still bound, per cent of control",[5],100%
same,"kinase still bound, per cent of control",[6],6.5%
same,"kinase still bound, per cent of control",[7],53%
same,"kinase still bound, per cent of control",[26],94%
same,"kinase still bound, per cent of control",[27],90%
same,"kinase still bound, per cent of control",[8],100%
same,"kinase still bound, per cent of control",[28],100%
same,IC50,[9],58 µM
same,"kinase still bound, per cent of control",[9],3.6%
same,"kinase still bound, per cent of control",[10],69%
same,"kinase still bound, per cent of control",[11],100%
same,"kinase still bound, per cent of control",[29],100%
same,"kinase still bound, per cent of control",[30],50%
same,"kinase still bound, per cent of control",[31],100%
same,"kinase still bound, per cent of control",[32],100%
same,"kinase still bound, per cent of control",[33],100%
same,"kinase still bound, per cent of control",[34],100%
same,"kinase still bound, per cent of control",[35],60%
same,"kinase still bound, per cent of control",[36],85%
same,"kinase still bound, per cent of control",[12],100%
same,"kinase still bound, per cent of control",[37],32%
same,"kinase still bound, per cent of control",[13],54%
same,"kinase still bound, per cent of control",[38],73%
same,"kinase still bound, per cent of control",[39],47%
same,"kinase still bound, per cent of control",[14],82%
same,"kinase still bound, per cent of control",[15],97%
same,"kinase still bound, per cent of control",[16],100%
same,"kinase still bound, per cent of control",[40],85%
same,"kinase still bound, per cent of control",[17],100%
same,"kinase still bound, per cent of control",[41],100%
same,"kinase still bound, per cent of control",[18],0.4%
same,"kinase still bound, per cent of control",[42],24%
same,"kinase still bound, per cent of control",[43],58%
same,"kinase still bound, per cent of control",[19],100%
same,"kinase still bound, per cent of control",[20],100%
